Data taken from patent publication US12403172B2, “Composition for preventing, alleviating or treating metabolic syndrome accompanied by obesity and/or diabetes, containing, as active ingredient, complex (IB complex) of Indian gooseberry extract and sprout barley extract” (HLSCIENCE CO., LTD, priority 2019, dated 2025).
Marks after values point to notes of the source that are not given here.

System: obesity-induced mice from high fat diet
Test: Body weight change of obesity-induced mice
Assay type: in vivo, C57BL/6J mice
Details: 60% high fat diet + Metformin 250 mg/kg b.w.
Procedure: The effect on the body weight change of obesity-induced mice from high fat diet of the complex of the Indian gooseberry extract and barley sprout extract of the present invention was confirmed. As an experimental animal, 4-week male C57BL/6J mice around 20 g were supplied from Saeron Bio Inc. (Uiwang-si, Korea). They were used for the experiment, after passing through the adaptation period for 1 week under the condition that the light and dark was 12 hours (light/dark cycle) and the temperature was 23±2° C. and the relative humidity was 50±5%. During the adaptation period, AIN-93G diet and drinking water were allowed to be consumed freely, and the body weight was measured to separate 8 mice per each group by the random method. At the end of the adaptation period, the sample intake was progressed as free diet intake for 15 weeks, and the dietary intake and body weight were measured every week, and after the end of the experiment, the weight gain was divided by the dietary intake (total food consumption)) for the same period to calculate the food efficiency ratio (FER). The classification of the experimental group and the composition of the experimental diet were shown in Table 5, and the equation of the diet efficiency was shown in the following equation 3. FER=weight gain (g)/total food consumption (g)×100 Equation 3

CN(C)C(=N)N=C(N)N [Met, Metformin]
Initial body weight: 19.26 ± 0.66 g
Final body weight (g) (15 weeks): 39.46 ± 2.16^d g
Food intake (g/day/mouse) (15 weeks): 2.66 ± 0.18^b g/day/mouse
Weight gain (g) (15 weeks): 20.20 ± 1.89^c g
FER (food efficiency ratio) (weight gain/total food consumption x100): 7.25 ± 0.68^c
